From PMC4295030, “Synthesis and molecular docking of novel non-competitive antagonists of GluK2 receptor” (Medicinal Chemistry Research, 2014)

Test system: T1, GluK2 receptor
T1 construct: gene GRIK2
Experiment: aequorin luminescence Ca2+ influx assay in HEK293 cells
Type: cell-based
Details: 275 μM glutamate as agonist, Ringer buffer + 100 mM CaCl2
From the text: aequorin luminescence Ca2+ influx assay in HEK293 cells on GluK2 receptor

Row | Structure (SMILES) | IC50 (non-competitive) | GluK2 inhibition at 100 µM, %
1 | COc1ccc2c(c1)c(C)c(-c1cccs1)n2C [compound 3, 5-methoxy-1,3-dimethyl-2-(2-thienyl)indole] | 12 µM | 
2 | O=C1CCCc2c1c1ccccc1n2Cc1ccc(Cl)cc1 [compound 7, 9-(4-chlorobenzyl)-4-oxo-1,2,3,4-tetrahydrocarbazole] |  | 22%
